Test results reported in the NIST ThermoML archive (doi:10.1021/je700215z).
± gives the expanded uncertainty stated by the source.

Experiments:
[1] = xn = mol fraction of the nth substance listed

CCCCO [butan-1-ol]
Settings | surface tension liquid-gas [mN/m]
283.15 K | 25.55 ± 0.29
288.15 K | 25.12 ± 0.29
293.15 K | 24.78 ± 0.29
298.15 K | 24.25 ± 0.29
303.15 K | 23.95 ± 0.29
308.15 K | 23.55 ± 0.28
313.15 K | 23.15 ± 0.28

CCC(C)O (centres undefined) [butan-2-ol]
Settings | surface tension liquid-gas [mN/m]
283.15 K | 24.37 ± 0.31
288.15 K | 23.95 ± 0.31
293.15 K | 23.56 ± 0.31
298.15 K | 23.08 ± 0.3
303.15 K | 22.75 ± 0.3
308.15 K | 22.39 ± 0.3
313.15 K | 21.97 ± 0.3

CCC(C)O (centres undefined) [butan-2-ol] + CCCCCC
surface tension liquid-gas [mN/m], [1]
Settings | 283.15 K | 288.15 K | 293.15 K | 298.15 K | 303.15 K | 308.15 K | 313.15 K
x1 = 0.0493 | 19.75 ± 0.28 | 19.16 ± 0.28 | 18.62 ± 0.27 | 18.11 ± 0.27 | 17.52 ± 0.26 | 16.69 ± 0.26 | 16.33 ± 0.26
x1 = 0.1057 | 19.84 ± 0.28 | 19.24 ± 0.28 | 18.7 ± 0.3 | 18.14 ± 0.27 | 17.53 ± 0.26 | 16.66 ± 0.26 | 16.26 ± 0.26
x1 = 0.2083 | 20 ± 0.28 | 19.36 ± 0.28 | 18.8 ± 0.3 | 18.21 ± 0.27 | 17.62 ± 0.27 | 16.81 ± 0.26 | 16.41 ± 0.26
x1 = 0.3004 | 20.18 ± 0.28 | 19.52 ± 0.28 | 18.95 ± 0.27 | 18.37 ± 0.27 | 17.82 ± 0.27 | 17.08 ± 0.26 | 16.7 ± 0.26
x1 = 0.4002 | 20.43 ± 0.28 | 19.77 ± 0.28 | 19.21 ± 0.28 | 18.67 ± 0.27 | 18.16 ± 0.27 | 17.5 ± 0.26 | 17.13 ± 0.26
x1 = 0.4962 | 20.72 ± 0.29 | 20.13 ± 0.28 | 19.6 ± 0.28 | 19.09 ± 0.28 | 18.6 ± 0.3 | 18.01 ± 0.27 | 17.62 ± 0.27
x1 = 0.5948 | 21.1 ± 0.29 | 20.57 ± 0.29 | 20.13 ± 0.28 | 19.61 ± 0.28 | 19.18 ± 0.28 | 18.6 ± 0.27 | 18.22 ± 0.27
x1 = 0.6968 | 21.64 ± 0.29 | 21.2 ± 0.29 | 20.76 ± 0.29 | 20.26 ± 0.28 | 19.84 ± 0.28 | 19.33 ± 0.28 | 18.92 ± 0.27
x1 = 0.8018 | 22.35 ± 0.3 | 21.9 ± 0.29 | 21.52 ± 0.29 | 21.04 ± 0.29 | 20.67 ± 0.29 | 20.18 ± 0.28 | 19.74 ± 0.28
x1 = 0.8964 | 23.18 ± 0.3 | 22.74 ± 0.3 | 22.34 ± 0.3 | 21.88 ± 0.29 | 21.52 ± 0.29 | 21.12 ± 0.29 | 20.73 ± 0.29
x1 = 0.9492 | 23.73 ± 0.31 | 23.31 ± 0.3 | 22.9 ± 0.3 | 22.43 ± 0.3 | 22.11 ± 0.3 | 21.73 ± 0.29 | 21.33 ± 0.29

CCO [ethanol]
Settings | surface tension liquid-gas [mN/m]
283.15 K | 23.12 ± 0.28
288.15 K | 22.75 ± 0.28
293.15 K | 22.28 ± 0.28
298.15 K | 21.86 ± 0.27
303.15 K | 21.49 ± 0.27
308.15 K | 21.15 ± 0.27
313.15 K | 20.66 ± 0.27

CCCCCC [hexane]
Settings | surface tension liquid-gas [mN/m]
283.15 K | 19.63 ± 0.28
288.15 K | 19.04 ± 0.28
293.15 K | 18.52 ± 0.27
298.15 K | 18.06 ± 0.27
303.15 K | 17.53 ± 0.26
308.15 K | 16.74 ± 0.26
313.15 K | 16.47 ± 0.26

CCCCCC [hexane] + CCCCO
surface tension liquid-gas [mN/m], [1]
Settings | 283.15 K | 288.15 K | 293.15 K | 298.15 K | 303.15 K | 308.15 K | 313.15 K
x2 = 0.0519 | 19.78 ± 0.28 | 19.15 ± 0.27 | 18.6 ± 0.3 | 18.11 ± 0.27 | 17.55 ± 0.26 | 16.75 ± 0.26 | 16.4 ± 0.26
x2 = 0.0875 | 19.87 ± 0.28 | 19.26 ± 0.27 | 18.7 ± 0.3 | 18.2 ± 0.3 | 17.61 ± 0.26 | 16.8 ± 0.26 | 16.43 ± 0.26
x2 = 0.1959 | 20.17 ± 0.28 | 19.58 ± 0.27 | 19.03 ± 0.27 | 18.52 ± 0.27 | 17.92 ± 0.26 | 17.13 ± 0.26 | 16.74 ± 0.26
x2 = 0.2999 | 20.41 ± 0.28 | 19.88 ± 0.27 | 19.35 ± 0.27 | 18.84 ± 0.27 | 18.28 ± 0.26 | 17.52 ± 0.26 | 17.12 ± 0.26
x2 = 0.399 | 20.69 ± 0.28 | 20.14 ± 0.27 | 19.65 ± 0.27 | 19.1 ± 0.27 | 18.62 ± 0.26 | 17.91 ± 0.26 | 17.48 ± 0.26
x2 = 0.4914 | 20.93 ± 0.28 | 20.4 ± 0.27 | 19.96 ± 0.27 | 19.43 ± 0.27 | 18.92 ± 0.26 | 18.29 ± 0.26 | 17.83 ± 0.26
x2 = 0.5974 | 21.44 ± 0.28 | 20.9 ± 0.27 | 20.44 ± 0.27 | 19.91 ± 0.27 | 19.43 ± 0.27 | 18.82 ± 0.26 | 18.39 ± 0.26
x2 = 0.7044 | 22.14 ± 0.28 | 21.63 ± 0.28 | 21.18 ± 0.27 | 20.6 ± 0.3 | 20.17 ± 0.27 | 19.59 ± 0.26 | 19.12 ± 0.26
x2 = 0.8027 | 23.09 ± 0.28 | 22.54 ± 0.28 | 22.13 ± 0.28 | 21.54 ± 0.27 | 21.13 ± 0.27 | 20.6 ± 0.27 | 20.15 ± 0.27
x2 = 0.9088 | 24.37 ± 0.29 | 23.85 ± 0.29 | 23.44 ± 0.28 | 22.87 ± 0.28 | 22.51 ± 0.28 | 22.06 ± 0.28 | 21.6 ± 0.27
x2 = 0.953 | 24.93 ± 0.29 | 24.47 ± 0.29 | 24.07 ± 0.29 | 23.53 ± 0.28 | 23.18 ± 0.28 | 22.76 ± 0.28 | 22.37 ± 0.28

CCCCCC [hexane] + CCO
surface tension liquid-gas [mN/m], [1]
Settings | 283.15 K | 288.15 K | 293.15 K | 298.15 K | 303.15 K | 308.15 K | 313.15 K
x2 = 0.0855 | 19.7 ± 0.28 | 19.11 ± 0.27 | 18.57 ± 0.27 | 18.03 ± 0.27 | 17.49 ± 0.26 | 16.67 ± 0.26 | 16.3 ± 0.25
x2 = 0.1006 | 19.74 ± 0.28 | 19.11 ± 0.27 | 18.56 ± 0.27 | 18.03 ± 0.27 | 17.48 ± 0.26 | 16.66 ± 0.26 | 16.29 ± 0.25
x2 = 0.2107 | 19.73 ± 0.27 | 19.1 ± 0.3 | 18.55 ± 0.27 | 18.01 ± 0.26 | 17.42 ± 0.26 | 16.64 ± 0.25 | 16.2 ± 0.3
x2 = 0.2928 | 19.77 ± 0.27 | 19.18 ± 0.27 | 18.57 ± 0.27 | 18.03 ± 0.26 | 17.46 ± 0.26 | 16.68 ± 0.25 | 16.24 ± 0.25
x2 = 0.4128 | 19.9 ± 0.27 | 19.29 ± 0.27 | 18.71 ± 0.26 | 18.15 ± 0.26 | 17.57 ± 0.26 | 16.85 ± 0.25 | 16.38 ± 0.25
x2 = 0.5071 | 20.08 ± 0.27 | 19.46 ± 0.27 | 18.84 ± 0.26 | 18.29 ± 0.26 | 17.72 ± 0.26 | 17.04 ± 0.25 | 16.56 ± 0.25
x2 = 0.5909 | 20.26 ± 0.27 | 19.67 ± 0.27 | 19.02 ± 0.26 | 18.45 ± 0.26 | 17.93 ± 0.26 | 17.26 ± 0.25 | 16.74 ± 0.25
x2 = 0.7036 | 20.61 ± 0.27 | 20.02 ± 0.27 | 19.36 ± 0.26 | 18.8 ± 0.26 | 18.26 ± 0.26 | 17.7 ± 0.25 | 17.21 ± 0.25
x2 = 0.8032 | 21.05 ± 0.27 | 20.46 ± 0.27 | 19.88 ± 0.27 | 19.32 ± 0.26 | 18.82 ± 0.26 | 18.31 ± 0.26 | 17.85 ± 0.25
x2 = 0.9021 | 21.78 ± 0.27 | 21.28 ± 0.27 | 20.73 ± 0.27 | 20.22 ± 0.27 | 19.81 ± 0.26 | 19.38 ± 0.26 | 18.91 ± 0.26
x2 = 0.932 | 22.11 ± 0.28 | 21.64 ± 0.27 | 21.11 ± 0.27 | 20.64 ± 0.27 | 20.22 ± 0.27 | 19.82 ± 0.26 | 19.36 ± 0.26
